“And” between values parts separate entries of the source, which are not always exact repeats. Identical values can stand only once. Like-named read-outs stand apart in the source and are kept apart here. Where a SMILES comes first, the peptide text is derived from it.
What was measured:
Format in all cases: biochemical
[1] = target: recombinant human fibroblast activation protein (FAP) (Homo sapiens (Human), UniProt Q12884); test: In vitro IC50 assay, fibroblast activation protein (Example 15)
Protocol: (§1) The purpose of this assay is to determine the IC50 of various inhibitors against recombinant human dipeptidyl peptidase IV (DPPIV), fibroblast activation protein (FAP) or prolyl oligopeptidase (PREP).
(§2) The assays are conducted in the following steps: • 1 Dissolve the compound in DMSO to a final concentration of 100 mM. From this, prepare a 1 mM stock at pH 7.5 in 50 mM Tris, 140 mM NaCl Buffer (FAP)/pH 7.5 in 25 mM Tris, 250 mM NaCl Buffer/pH 8.0 140 mM NaCl Buffer (PREP). • 2. Serial dilute (1:10) the 1 mM compound stocks prepared previously into the appropriate assay buffer (FAP: 50 mM Tris, 140 mM NaCl, pH 7.5/PREP: 25 mM Tris, 0.25 M NaCl, pH 7.5/DPPIV: 25 mM Tris, pH 8.0) to one row of a 96-well plate. • 3. […] Dilute the enzymes into their appropriate assay buffers. The final enzyme concentrations should be 0.1, 1.2, and 0.6 nM for DPPIV, FAP and PREP respectively. Add 180 μL to each well needed in columns 2-10. Column 1 (A,B,C) should be prepared with 200 ul of appropriate assay buffer as control. Column 1 (D,E,F,G,H) should be prepared with 20 ul of appropriate assay buffer and 180 ul enzyme as no inhibitor control. • 5. Add 20 μL of the compound of interest from the dilution plate prepared in step 2 to columns 2-10 of the assay plate where appropriate. Each sample should be tested in triplicate. Allow this to incubate for 10 minutes at room temperature, shaking the plate for the first two minutes. • 6. Add 10 μL of 20× substrate prepared in step 3 to each well and allow this to incubate for 15 minutes at room temperature, shaking the plate for the first two minutes. • 7. Read the fluorescence at λex: 380, λem: 460. (DPcore=[dAla|dSerGly]-[boroPro|Pro-nitrile], XXaa=alpha-amino acid)

[2] = target: recombinant human dipeptidyl peptidase IV (DPPIV) (Homo sapiens (Human), UniProt P27487); test: In vitro IC50 assay, dipeptidyl peptidase IV (Example 15); details: Gly-Pro-AMC, room temperature
Chain of recombinant human dipeptidyl peptidase IV (DPPIV) (P27487 whole entry): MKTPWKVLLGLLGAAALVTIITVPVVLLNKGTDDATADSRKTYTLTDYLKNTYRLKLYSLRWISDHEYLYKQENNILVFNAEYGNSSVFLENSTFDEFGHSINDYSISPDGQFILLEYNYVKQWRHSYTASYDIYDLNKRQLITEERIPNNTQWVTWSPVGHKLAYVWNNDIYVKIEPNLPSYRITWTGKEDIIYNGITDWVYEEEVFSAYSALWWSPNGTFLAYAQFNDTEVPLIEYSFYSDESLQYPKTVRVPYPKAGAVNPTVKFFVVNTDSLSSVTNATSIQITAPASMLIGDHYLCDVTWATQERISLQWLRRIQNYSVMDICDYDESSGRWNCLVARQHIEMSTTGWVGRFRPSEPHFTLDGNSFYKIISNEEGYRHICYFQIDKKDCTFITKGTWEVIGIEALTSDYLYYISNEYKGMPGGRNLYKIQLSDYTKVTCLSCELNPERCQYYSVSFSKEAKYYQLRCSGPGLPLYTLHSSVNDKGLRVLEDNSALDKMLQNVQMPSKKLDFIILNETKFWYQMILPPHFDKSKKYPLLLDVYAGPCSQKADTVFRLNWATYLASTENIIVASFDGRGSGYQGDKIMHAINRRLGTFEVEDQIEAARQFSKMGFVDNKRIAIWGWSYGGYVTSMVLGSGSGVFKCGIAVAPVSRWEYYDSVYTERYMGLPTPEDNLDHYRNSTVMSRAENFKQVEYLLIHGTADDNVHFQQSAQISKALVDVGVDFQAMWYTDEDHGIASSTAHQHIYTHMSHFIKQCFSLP
Protocol: as §1, §2

[3] = target: recombinant human prolyl oligopeptidase (PREP) (Homo sapiens (Human), UniProt P48147); test: In vitro IC50 assay, prolyl oligopeptidase (Example 15)
Chain of recombinant human prolyl oligopeptidase (PREP) (P48147 whole entry): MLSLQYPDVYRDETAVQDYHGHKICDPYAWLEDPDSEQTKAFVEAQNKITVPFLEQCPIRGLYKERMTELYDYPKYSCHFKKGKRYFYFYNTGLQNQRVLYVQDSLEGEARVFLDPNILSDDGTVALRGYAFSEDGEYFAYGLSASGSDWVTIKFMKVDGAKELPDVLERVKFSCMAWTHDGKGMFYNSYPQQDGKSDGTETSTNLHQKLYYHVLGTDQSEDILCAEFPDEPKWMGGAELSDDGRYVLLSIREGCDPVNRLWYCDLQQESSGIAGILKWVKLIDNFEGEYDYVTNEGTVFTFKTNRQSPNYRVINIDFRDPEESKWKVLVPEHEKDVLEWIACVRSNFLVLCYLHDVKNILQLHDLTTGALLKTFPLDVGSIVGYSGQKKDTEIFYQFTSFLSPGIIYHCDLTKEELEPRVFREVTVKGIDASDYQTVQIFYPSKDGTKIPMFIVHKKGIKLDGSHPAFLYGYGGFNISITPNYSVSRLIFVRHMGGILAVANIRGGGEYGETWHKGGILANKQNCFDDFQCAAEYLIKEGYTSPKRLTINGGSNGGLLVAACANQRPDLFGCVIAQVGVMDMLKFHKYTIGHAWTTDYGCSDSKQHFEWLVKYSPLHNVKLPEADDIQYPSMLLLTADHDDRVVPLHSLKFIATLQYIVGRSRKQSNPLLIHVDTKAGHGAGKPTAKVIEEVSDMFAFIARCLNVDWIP
Protocol: as §1, §2

[4] = Z-Gly-Pro-AMC, room temperature, read-out: FAP IC50
[5] = Z-Gly-Pro-AMC, room temperature, read-out: PREP IC50

Chain of recombinant human fibroblast activation protein (FAP) (Q12884 whole entry): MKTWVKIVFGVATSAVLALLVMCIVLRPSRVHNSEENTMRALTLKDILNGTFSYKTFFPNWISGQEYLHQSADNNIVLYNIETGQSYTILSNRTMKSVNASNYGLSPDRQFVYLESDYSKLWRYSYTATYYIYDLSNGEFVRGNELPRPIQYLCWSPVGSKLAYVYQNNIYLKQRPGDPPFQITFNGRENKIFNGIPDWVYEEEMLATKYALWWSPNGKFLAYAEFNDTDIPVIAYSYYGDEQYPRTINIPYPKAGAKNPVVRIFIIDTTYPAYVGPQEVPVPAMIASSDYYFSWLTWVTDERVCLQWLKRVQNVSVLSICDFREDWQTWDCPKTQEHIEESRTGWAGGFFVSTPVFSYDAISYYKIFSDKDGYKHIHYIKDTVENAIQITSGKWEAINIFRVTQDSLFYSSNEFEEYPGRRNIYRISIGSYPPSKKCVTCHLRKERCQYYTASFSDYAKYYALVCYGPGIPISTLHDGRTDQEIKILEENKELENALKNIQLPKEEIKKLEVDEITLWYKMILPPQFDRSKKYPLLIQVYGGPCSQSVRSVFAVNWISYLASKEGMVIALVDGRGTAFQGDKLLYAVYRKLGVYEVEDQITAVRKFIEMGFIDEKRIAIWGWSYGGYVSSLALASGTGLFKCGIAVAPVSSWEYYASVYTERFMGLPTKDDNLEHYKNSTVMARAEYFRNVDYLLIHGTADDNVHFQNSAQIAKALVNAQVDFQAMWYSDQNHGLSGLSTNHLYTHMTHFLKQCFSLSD

Row | Compound | IC50 [1, 4] | IC50 [2] [µM] | IC50 [3, 5] [µM] | IC50 [3] [µM] | IC50 [1] [µM]
1 | CC(C)[C@H](NC(=O)CNC(=O)CNC(=O)CNC(=O)CNC(=O)CN1CCN(CC(=O)O)CCN(CC(=O)O)CCN(CC(=O)O)CC1)C(=O)N[C@H](C)C(=O)N1CCC[C@H]1B(O)O [Compound 6839, DOTA-(Gly)4-Val-D-ala-boroPro] (HELM PEPTIDE1{[O=C(O)CN1CCN(CC(=O)O)CCN(CC(=O)[*:2])CCN(CC(=O)O)CC1].G.G.G.G.V.[dA].[OB(O)[C@@H]1CCCN1[*:1]]}$$$$V2.0) | 0.021 µM |  |  |  | 
2 | C[C@@H](NC(=O)c1ccc(NN)nc1)C(=O)N1CCC[C@H]1B(O)O [Compound 3860, N-(6-hydrazinylnicotincarbonyl)-D-AlaboroPro] |  | > 100 |  |  | 
3 | CC(C)[C@H](NC(=O)CNC(=O)CNC(=O)CN1CCN2CCN3CCN(CC1)CC(=O)[O][Ga]([O]C(=O)C2)[O]C(=O)C3)C(=O)N[C@H](C)C(=O)N1CCC[C@H]1B(O)O [Compound 6522GA-02, DOTA(Ga)-Gly-Gly-Val-D-alaboroPro] (HELM PEPTIDE1{[O=C1CN2CCN3CCN(CC(=O)[*:2])CCN(CC2)CC(=O)[O][Ga]([O]1)[O]C(=O)C3].G.G.V.[dA].[OB(O)[C@@H]1CCCN1[*:1]]}$$$$V2.0) | 0.575 µM | > 100 | 19 |  | 
4 | (R)-DOTAGA(Ga)-Gly-Val-Dala-boroPro [Compound 6795DGA] | 0.31 µM | > 100 | 9.4 |  | 
5 | C[C@@H](NC(=O)CN1CCN2CCN3CCN(CC1)CC(=O)[O][Gd]([O]C(=O)C2)[O]C(=O)C3)C(=O)N1CCC[C@H]1B(O)O [Compound 4535GD, DOTA[(Gd(III)]-D-alaboroPro] | 0.76 µM |  | > 10 |  | 
6 | C[C@@H](NC(=O)CN1CCN(CC(=O)O)CCN(CC(=O)O)CCN(CC(=O)O)CC1)C(=O)N1CCC[C@H]1B(O)O [Compound 4535, DOTA-D-ala-boroPro] |  |  | > 10 | 10 | 0.033
7 | CC(C)[C@H](NC(=O)CNC(=O)CNC(=O)CN1CCN2CCN3CCN(CC1)CC(=O)[O][Lu]([O]C(=O)C2)[O]C(=O)C3)C(=O)N[C@H](C)C(=O)N1CCC[C@H]1B(O)O [Compound 6522LU, DOTA(Lu)-Gly-Gly-Val-D-ala-boroPro] (HELM PEPTIDE1{[O=C1CN2CCN3CCN(CC(=O)[*:2])CCN(CC2)CC(=O)[O][Lu]([O]1)[O]C(=O)C3].G.G.V.[dA].[OB(O)[C@@H]1CCCN1[*:1]]}$$$$V2.0) | 0.026 µM | > 100 | 19 |  | 
8 | C[C@@H](NC(=O)c1ccc(NNC(=O)CN2CCN3CCN4CCN(CC2)CC(=O)[O][Ga]([O]C(=O)C3)[O]C(=O)C4)cc1)C(=O)N1CCC[C@H]1B(O)O [Compound 5183GA] | 0.0461 µM |  |  |  | 
9 | C[C@@H](NC(=O)[C@H](CO)NC(=O)CN1CCN(CC(=O)O)CCN(CC(=O)O)CCN(CC(=O)O)CC1)C(=O)N1CCC[C@H]1B(O)O [Compound 6509, DOTA-Ser-D-Ala-boroPro] | 0.186 µM |  |  |  | 
10 | C[C@@H](NC(=O)c1ccc(NNC(=O)CN2CCN(CC(=O)O)CCN(CC(=O)O)CCN(CC(=O)O)CC2)nc1)C(=O)N1CCC[C@H]1B(O)O [Compound 4536] |  |  | 0.75 |  | 
11 | CC(C)[C@H](NC(=O)CNC(=O)CNC(=O)CN1CCN(CC(=O)O)CCN(CC(=O)O)CCN(CC(=O)O)CC1)C(=O)N[C@H](C)C(=O)N1CCC[C@H]1B(O)O [Compound 6522L, DOTA-Gly-Gly-Val-alaboroPro(L-ala)] (HELM PEPTIDE1{[O=C(O)CN1CCN(CC(=O)O)CCN(CC(=O)[*:2])CCN(CC(=O)O)CC1].G.G.V.[dA].[OB(O)[C@@H]1CCCN1[*:1]]}$$$$V2.0) |  | 3.4 | 0.0076 |  | > 100
12 | C[C@@H](NC(=O)c1ccc(NNC(=O)CCCCCNC(=O)CN2CCN3CCN4CCN(CC2)CC(=O)[O][Ga]([O]C(=O)C3)[O]C(=O)C4)cc1)C(=O)N1CCC[C@H]1B(O)O [Compound 6486GA] | 0.081 µM | > 100 | 4.7 |  | 
13 | CC(C)[C@H](NC(=O)CNC(=O)CC[C@H]1C(=O)[O][Lu]23[O]C(=O)CN4CCN(CCN1CCN(CC4)CC(=O)[O]2)CC(=O)[O]3)C(=O)N[C@H](C)C(=O)N1CCC[C@H]1B(O)O [Compound 6795LLU, (S)-DOTAGA-Gly-Val-Dala-boroPro (6795L-Lu Complex)] |  |  |  | 6.39 | 0.0201
14 | CC(C)[C@H](NC(=O)CNC(=O)CNC(=O)CNC(=O)CCC(C(=O)O)N1CCN(CC(=O)O)CCN(CC(=O)O)CCN(CC(=O)O)CC1)C(=O)N[C@H](C)C(=O)N1CCC[C@H]1B(O)O (mixture of isomers) [Compound 6808, (R/S)-DOTAGA-(Gly)3-Val-Dala-boroPro] |  |  |  |  | 0.0115
15 | C[C@@H](NC(=O)c1ccc(NNC(=O)CCCCCNC(=O)CN2CCN3CCN4CCN(CC2)CC(=O)[O][Lu]([O]C(=O)C3)[O]C(=O)C4)nc1)C(=O)N1CCC[C@H]1B(O)O [Compound 6958LU] | 0.0011 µM |  | 0.155 |  | 
16 | C[C@@H](NC(=O)c1ccc(NNC(=O)CCCCCC2=C(/C=C/C3=C(Oc4ccc(S(=O)(=O)O)cc4)C(=C/C=C4/N(CCCCS(=O)(=O)O)c5ccc(S(=O)(=O)O)cc5C4(C)C)/CCC3)C(C)(C)c3cc(S(=O)(=O)O)ccc32)cc1)C(=O)N1CCC[C@H]1B(O)O [Compound 4613C, IRDye 800CW-3860B] | 0.0017 µM |  | 0.61 |  | 
17 | (R)-DOTAGA(Ga)-(Gly)3-Val-Dala-boroPro [Compound 6808DGA] | 0.089 µM |  |  |  | 
18 | C[C@@H](NC(=O)c1ccc(NNC(=O)CCCCCC2=C(/C=C/C3=C(Oc4ccc(S(=O)(=O)O)cc4)C(=C/C=C4/N(CCCCS(=O)(=O)O)c5ccc(S(=O)(=O)O)cc5C4(C)C)/CCC3)C(C)(C)c3cc(S(=O)(=O)O)ccc32)nc1)C(=O)N1CCC[C@H]1B(O)O [Compound 4613B, IRDye800CW-3860] | 0.0088 µM and 0.01 µM | > 100 | 0.39 |  | 
19 | C[C@@H](NC(=O)c1ccc(NC(=O)CCCCNC(=O)CN2CCN3CCN4CCN(CC2)CC(=O)[O][Lu]([O]C(=O)C3)[O]C(=O)C4)cc1)C(=O)N1CCC[C@H]1B(O)O [Compound 6590LU] | 0.0004 µM |  |  |  | 
20 | CC(C)[C@H](NC(=O)CNC(=O)CNC(=O)CN1CCN(CC(=O)O)CCN(CC(=O)O)CCN(CC(=O)O)CC1)C(=O)N[C@H](C)C(=O)N1CCCC1B1OC(=O)CN(C)CC(=O)O1 (stereo partly drawn) [Compound 6522M, DOTA-Gly-Gly-Val-D-alaboroPro-MIDA] (HELM PEPTIDE1{[O=C(O)CN1CCN(CC(=O)O)CCN(CC(=O)[*:2])CCN(CC(=O)O)CC1].G.G.V.[dA].[CN1CC(=O)OB(C2CCCN2[*:1])OC(=O)C1]}$$$$V2.0) | 0.28 µM |  |  |  | 
21 | C[C@@H](NC(=O)c1ccc(NNC(=O)CCCNC(=O)CN2CCN3CCN4CCN(CC2)CC(=O)[O][Lu]([O]C(=O)C3)[O]C(=O)C4)nc1)C(=O)N1CCC[C@H]1B(O)O [Compound 6609LU] | 0.001 µM |  | 0.06 |  | 
22 | C[C@@H](NC(=O)c1ccc(NNC(=O)CCCNC(=O)CN2CCN3CCN4CCN(CC2)CC(=O)[O][Ga]([O]C(=O)C3)[O]C(=O)C4)cc1)C(=O)N1CCC[C@H]1B(O)O [Compound 6489GA] | 0.039 µM | > 100 | 3.4 |  | 
23 | CC(C)[C@H](NC(=O)CNC(=O)CC[C@@H]1C(=O)[O][Lu]23[O]C(=O)CN4CCN(CCN1CCN(CC4)CC(=O)[O]2)CC(=O)[O]3)C(=O)N[C@H](C)C(=O)N1CCC[C@H]1B(O)O [Compound 6795DLU, (R)-DOTAGA(Lu)-Gly-Val-Dala-boroPro] |  | > 100 |  |  | 
24 | C[C@@H](NC(=O)c1ccc(NNC(=O)CN2CCN3CCN4CCN(CC2)CC(=O)[O][Gd]([O]C(=O)C3)[O]C(=O)C4)nc1)C(=O)N1CCC[C@H]1B(O)O [Compound 4536GD] |  | > 100 | > 100 |  | 
25 | CC(C)[C@H](NC(=O)CNC(=O)CC[C@H](C(=O)O)N1CCN(CC(=O)O)CCN(CC(=O)O)CCN(CC(=O)O)CC1)C(=O)N[C@H](C)C(=O)N1CCC[C@H]1B(O)O [Compound 6795D, (R)-DOTAGA-Gly-Val-D-ala-boroPro] |  | > 100 |  |  | 
26 | CC(C)[C@H](NC(=O)CN1CCN2CCN(CC(=O)O)CCN(CC1)CC(=O)[O][Cu][O]C(=O)C2)C(=O)N[C@H](C)C(=O)N1CCC[C@H]1B(O)O (stereo in doubt) [Compound 6508CU, DOTA[(Cu(II)]-Val-D-Ala-boroPro] | 0.0262 µM |  |  |  | 
27 | C[C@H](NC(=O)CN1CCN2CCN3CCN(CC1)CC(=O)[O][Gd]([O]C(=O)C2)[O]C(=O)C3)C(=O)N[C@H](C)C(=O)N1CCC[C@H]1B(O)O [Compound 6511Gd, DOTA[(Gd(III)]-Ala-D-Ala-boroPro] | 0.428 µM |  |  |  | 
